Where two headings read alike, the source gives them in different places.
Columns and labels:
[1] = UV-Visible and fluorescence spectrometry; assay type: physicochemical; conditions: for λmax(nm)in EtOH: UV-Vis absorption maximum in EtOH; for Log ε: UV-Vis in EtOH; for λEm (nm): fluorescence emission, excited at 610 nm
Description: (§1) All of the new prepared phenothiazine-pyridine compounds are deep blue solid, the basic physiochemical properties are measured by UV-Visible and fluorescence spectrometry. […] The maximum absorption is about 650 nm in ethanol, and they are varied based on the compound structure. The fluorescence emission is about 680 nm when excited at 610 nm. All of these compounds have relatively high quantum yield, they are promising diagnostic and imaging agents. The lipophilicity is determined by the partition coefficient (log P), which can be obtained by measuring the UV-Vis absorption of the compound in phosphate buffer saline (PBS) before and after the partition equilibrium between n-octanol and PBS solution, and then calculated following the equation of: Log p=Log [(Abefore/Aafter)−1]. Wherein Abefore and Aafter are the absorption values in PBS solution before and after partition.

[2] = Partition coefficient (log P) between n-octanol and PBS by UV-Vis absorption; assay type: physicochemical
Description: as §1

[3] = tested on: normal fibroblast WI38 cells; test: Dark toxicity, MTT assay; assay type: cell-based; conditions: Homo sapiens, read-out: IC50 dark toxicity
Description: (§2) Cell lines and culture conditions: A549, HT29, MCF-7, MDA-MB-231 cell lines were maintained in RPMI1640 supplemented with fetal bovine serum (10%) and penicillin-streptomycin solution (1%), and WI38 cells were maintained in DMEM supplemented with fetal bovine serum (10%) and penicillin-streptomycin solution (1%). Approximately 1×10^4 (for A549, HT29, MCF-7, MDA-MB-231) or 1.5×10^4 (for WI38) cells per well were seeded in 96-well plate and incubated overnight light at 37° C. in a humidified atmosphere with 5% CO2.
(§3) Dark toxicity: Cells were incubated with different concentrations of photosensitive drug for 24 h in dark, and the cell viabilities were determined by MTT assay
The IC50 values (50% inhibitory concentration) of the prepared phenothiazine-pyridine compounds 8, 14, 15, 16, 17, 18, 19, 20, 21, 22, 23, and 24 to normal fibroblast cell line WI38 were measured by MTT assay.

A549 cell line [4] = test: Photocytotoxicity (PDT), MTT assay; assay type: cell-based; conditions: Homo sapiens, read-out: IC50 PDT
Description: as §2
(§4) Photocytotoxicity: Cells were incubated with different concentrations of photosensitive drug for 1 h in the dark, then the medium in the well was sucked by a syringe, and washed by PBS. Then a solution of new medium was added, and illuminated by light. After irradiation, the cells were incubated under dark at 37° C. for another 24 h, and the cell viabilities were determined by MTT assay.

HT29 cell line [5] = test: Photocytotoxicity (PDT), MTT assay; assay type: cell-based; conditions: Homo sapiens, HT-29, light or radiation study, read-out: IC50 PDT
Description: as §2, §4

MCF7 cell line [6] = test: Photocytotoxicity (PDT), MTT assay; assay type: cell-based; conditions: Homo sapiens, read-out: IC50 PDT
Description: as §2, §4

A549 cell line [7] = test: Dark toxicity, MTT assay; assay type: cell-based; conditions: Homo sapiens, read-out: IC50 DK
Description: as §2, §3

HT29 cell line [8] = test: Dark toxicity, MTT assay; assay type: cell-based; conditions: Homo sapiens, read-out: IC50 DK
Description: as §2, §3

MCF7 cell line [9] = test: Dark toxicity, MTT assay; assay type: cell-based; conditions: Homo sapiens, read-out: IC50 DK
Description: as §2, §3

S. aureus [10] = test: Dark toxicity of photosensitizers on bacteria, CFU count; assay type: cell-based, Staphylococcus aureus; conditions: absence of light, 6 h
Description: (§5) Bacterial growth and culture: Gram-positive S. aureus or Gram-negative E. coli were grown on trypticase soy agar (TSA) for 24 h, then a colony was transferred into tryptica soy broth (TSB) and grown at 37° C. overnight at a 200 rpm speeds of shaking-up using a shaker incubator. The nutrient medium was centrifuged for 5 min at 8000 rpm and diluted by sterile 0.85% saline (pH 7.5) to concentrations of 10^8 CFU/ml, which was used for further incubation with photosensitizers in the following experiments.
(§6) Dark toxicities of the photosensitizers on bacteria: Bacterial suspensions were incubated with photosensitizers at various concentrations at 37° C. in the dark for 6 h. After that, 100 uL of cell suspension were spread on the TSA in 10-fold serial dilutions. Colony forming unit (CFU) was counted after incubation for 24 h at 37° C.

E. coli [11] = test: as above; assay type: cell-based, Escherichia coli; conditions: absence of light, 6 h
Description: as §5, §6

MDA-MB-231 cells = test: Light dosage dependent photocytotoxicity, 635 Laser; assay type: cell-based; conditions: MDA-MB-231, 635 Laser
Description: as §2, §4
[…] After incubation for a further 24 h, 3-(4,5-Dimethylthiazol-2-yl)-2,5-diphenyltetrazolium bromide (MTT) were added and the cells were incubated for another 4 h. The medium were sucked by syringe, and dimethyl sulfoxide (DMSO) was added to fully dissolve the crystals, the optical density (OD) values were measured with a microplate reader, and the data were analyzed by GraphPad Prism 6.

S. aureus [12] = test: Photodynamic inactivation of bacteria, CFU count; assay type: cell-based, Staphylococcus aureus
Description: as §5
(§7) Photodynamic inactivation of bacteria: Bacterial suspensions (2×10^8 CFU/ml) were co-incubated with different concentrations of the photosensitizer for 10 min at 37° C., and then centrifuged, washed once with normal saline and resuspended in PBS saline. Aliquots of this suspension were placed into 24-well flat bottom plate and illuminated with laser light. After illumination, 100 uL of cell suspension were spread on the TSA in 10-fold serial dilutions and colony forming unit (CFU) was counted after incubation for 24 h at 37° C.

E. coli [13] = test: Photodynamic inactivation of bacteria, CFU count; assay type: cell-based, Escherichia coli
Description: as §5, §7

CCN(CC)c1ccc2nc3c(cc(NCCCN)c4nc(C)ccc43)[s+]c2c1 [Compound 21, 5-(3-aminopropylamino)-9-(diethylamino)-3-methylpyrido[3,2-a]phenothiazin-7-ium chloride]
λmax(nm)in EtOH [1]: 668 nm | Log ε [1]: 4.82 | λEm (nm) [1]: 686 nm | logP [2]: 0.64 | IC50 ([3]; WI-38, 24 h): > 10000 nM

CCCCCCCNc1cc2[s+]c3cc(N(CC)CC)ccc3nc2c2ccc(C)nc12 [Compound 16, 9-(diethylamino)-5-(heptylamino)-3-methylpyrido[3,2-a]phenothiazin-7-ium chloride]
λmax(nm)in EtOH [1]: 651 nm | Log ε [1]: 4.89 | λEm (nm) [1]: 684 nm | logP [2]: 1.44 | IC50 ([3]; WI-38, 24 h): > 10000 nM

CCCCCCCCCCNc1cc2[s+]c3cc(N(CC)CC)ccc3nc2c2ccc(C)nc12 [Compound 17, 5-(decylamino)-9-(diethylamino)-3-methylpyrido[3,2-a]phenothiazin-7-ium chloride]
λmax(nm)in EtOH [1]: 651 nm | Log ε [1]: 4.89 | λEm (nm) [1]: 684 nm | logP [2]: 2.49 | IC50 ([3]; WI-38, 24 h): 7000 nM

CCCCCN(CCCCC)c1cc2[s+]c3cc(N(CC)CC)ccc3nc2c2ccc(C)nc12 [Compound 20, 9-(diethylamino)-5-(dipentylamino)-3-methylpyrido[3,2-a]phenothiazin-7-ium chloride]
λmax(nm)in EtOH [1]: 676 nm | Log ε [1]: 4.89 | λEm (nm) [1]: 700 nm | logP [2]: 1.48 | IC50 ([3]; WI-38, 24 h): > 10000 nM

CCN(CC)c1ccc2nc3c(cc(N)c4nc(C)ccc43)[s+]c2c1 [Compound 8, 5-amino-9-(diethylamino)-3-methylpyrido[3,2-a]phenothiazin-7-ium chloride]
λmax(nm)in EtOH [1]: 658 nm | Log ε [1]: 4.93 | λEm (nm) [1]: 680 nm | logP [2]: 0.97 | IC50 ([3]; WI-38, 24 h): > 10000 nM | IC50 (A549 cell line [4]; A549, light or radiation study): 1800 nM | IC50 (HT29 cell line [5]): 210 nM | IC50 (MCF7 cell line [6]; MCF7, light or radiation study): 500 nM | IC50 (A549 cell line [7]; A549, 24 h): 6500 nM | IC50 (HT29 cell line [8]; HT-29, 24 h): 4600 nM | IC50 (MCF7 cell line [9]; MCF7, 24 h): 1100 nM | dark toxicity (S. aureus [10]): essentially non-toxic | dark toxicity (E. coli [11]): essentially non-toxic

CCCNc1cc2[s+]c3cc(N(CC)CC)ccc3nc2c2ccc(C)nc12.[Cl-] [Compound 14, 9-(diethylamino)-3-methyl-5-(propylamino)pyrido[3,2-a]phenothiazin-7-ium chloride]
λmax(nm)in EtOH [1]: 666 nm | Log ε [1]: 5.01 | λEm (nm) [1]: 684 nm | logP [2]: 1.34 | IC50 ([3]; WI-38, WI38 cells, 24 h under dark, MTT): > 10000 nM | IC50 (A549 cell line [4]; light or radiation study, A549, 1 h incubation, 630 nm LED light 30 s, 3.2 J/cm^2, 24 h, MTT): 340 nM | IC50 (HT29 cell line [5]; HT29, 1 h incubation, 630 nm LED light 30 s, 3.2 J/cm^2, 24 h, MTT): 39 nM | IC50 (MCF7 cell line [6]; light or radiation study, MCF7, 1 h incubation, 630 nm LED light 30 s, 3.2 J/cm^2, 24 h, MTT): 370 nM | IC50 (A549 cell line [7]; A549, 24 h under dark, MTT): 3100 nM | IC50 (HT29 cell line [8]; HT-29, HT29, 24 h under dark, MTT): 2100 nM | IC50 (MCF7 cell line [9]; MCF7, 24 h under dark, MTT): 1900 nM | photocytotoxicity vs light dosage (MDA-MB-231 cells): light dosage dependent photocytotoxicity | dark toxicity (S. aureus [10]): essentially non-toxic | dark toxicity (E. coli [11]): essentially non-toxic | photocytotoxicity vs light dosage (S. aureus [12]; 0.5 uM drug): light dosage dependent | eradication (S. aureus [12]; 0.5 uM, 30 J/cm^2): about 99.9999% | log 10-reduction (S. aureus [12]; 0.5 uM, 30 J/cm^2): ~6 log 10-reduction | photocytotoxicity vs light dosage (E. coli [13]; 6 uM drug): light dosage dependent | eradication (E. coli [13]; 6 uM, 50 J/cm^2): about 99.999% | log 10-reduction (E. coli [13]; 6 uM, 50 J/cm^2): ~5 log 10-reduction

Reference: patent publication US10189862B2, “Phenothiazine-pyridine compounds and uses thereof” (The Chinese University of Hong Kong, priority 2016, dated 2019)
